Experimental findings from patent US10758534B2 (Vertex Pharmaceuticals Incorporated, priority 2014, dated 2020) are described below.

The first assay deals with T1, F508del (Homo sapiens, UniProt P13569, DEL508-508).
T1 construct: expressed in transfected cells
T1 sequence (P13569 with tags, fused parts or gaps DEL508-508): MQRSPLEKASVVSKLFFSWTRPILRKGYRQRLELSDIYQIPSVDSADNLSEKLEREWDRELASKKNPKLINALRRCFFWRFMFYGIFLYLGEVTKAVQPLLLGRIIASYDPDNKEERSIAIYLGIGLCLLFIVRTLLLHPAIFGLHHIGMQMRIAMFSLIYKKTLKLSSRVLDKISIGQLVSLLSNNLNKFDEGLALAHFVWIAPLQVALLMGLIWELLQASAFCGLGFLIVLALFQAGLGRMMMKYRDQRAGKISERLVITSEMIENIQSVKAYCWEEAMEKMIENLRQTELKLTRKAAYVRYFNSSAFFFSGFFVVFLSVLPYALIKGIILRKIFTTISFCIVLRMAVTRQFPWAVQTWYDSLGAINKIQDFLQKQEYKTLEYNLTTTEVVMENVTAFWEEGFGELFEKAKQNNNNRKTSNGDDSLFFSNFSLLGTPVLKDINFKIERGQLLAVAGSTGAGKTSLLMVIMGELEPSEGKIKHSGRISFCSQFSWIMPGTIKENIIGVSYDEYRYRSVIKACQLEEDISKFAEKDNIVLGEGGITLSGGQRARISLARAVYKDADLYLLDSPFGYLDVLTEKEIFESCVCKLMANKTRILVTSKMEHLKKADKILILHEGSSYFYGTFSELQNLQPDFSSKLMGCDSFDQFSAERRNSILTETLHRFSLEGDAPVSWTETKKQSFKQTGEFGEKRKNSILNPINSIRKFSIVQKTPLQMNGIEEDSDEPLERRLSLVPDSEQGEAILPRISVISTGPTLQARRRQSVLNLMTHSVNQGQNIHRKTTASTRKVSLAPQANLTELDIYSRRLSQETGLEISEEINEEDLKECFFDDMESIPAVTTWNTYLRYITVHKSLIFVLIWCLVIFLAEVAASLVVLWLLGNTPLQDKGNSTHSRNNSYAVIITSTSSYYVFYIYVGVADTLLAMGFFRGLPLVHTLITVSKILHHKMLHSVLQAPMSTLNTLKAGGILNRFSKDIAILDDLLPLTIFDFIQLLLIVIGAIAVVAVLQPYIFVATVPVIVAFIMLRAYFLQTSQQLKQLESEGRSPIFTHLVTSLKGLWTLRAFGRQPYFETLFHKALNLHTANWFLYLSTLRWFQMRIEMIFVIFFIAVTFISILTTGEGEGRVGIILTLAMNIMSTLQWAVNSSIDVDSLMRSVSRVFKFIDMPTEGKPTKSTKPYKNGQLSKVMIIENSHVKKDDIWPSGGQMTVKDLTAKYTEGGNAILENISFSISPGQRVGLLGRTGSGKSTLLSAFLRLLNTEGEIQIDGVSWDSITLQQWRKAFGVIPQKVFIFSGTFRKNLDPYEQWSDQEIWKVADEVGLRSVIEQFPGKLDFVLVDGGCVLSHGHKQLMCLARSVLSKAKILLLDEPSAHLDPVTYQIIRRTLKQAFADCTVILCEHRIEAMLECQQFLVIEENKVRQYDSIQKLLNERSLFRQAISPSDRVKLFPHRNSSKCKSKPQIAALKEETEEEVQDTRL
Briefly: Protocol 2: FRET membrane potential optical assay (VIPR), identification of correction compounds. The format is cell-based. The note with it: F508del CFTR modulator activity; compounds of Table 1; read-out: EC30. In outline: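 Corrector readout: membrane-potential FRET (CC2-DMPE donor, DiSBAC2(3) acceptor) on VIPR II after Cl⁻-free gluconate bath with 10 μM forskolin and 20 μM genistein. Before this, F508del-expressing NIH3T3 cells were exposed to test compound for 16 h at 37 °C without serum; 27 °C incubation served as temperature-correction control.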
Consider `CC1CN(c2ncccc2C(=O)NS(=O)(=O)c2cccc(Oc3cccc(N(C)C)c3)n2)C(C)(C)C1` (stereo not drawn) [Compound 2443, N—[[6-[3-(dimethylamino)phenoxy]-2-pyridyl]sulfonyl]-2-(2,2,4-trimethylpyrrolidin-1-yl)pyridine-3-carboxamide], for which the EC30 was under 3 µM.
Same read-out and setting: the result for `C[C@@H]1CN(c2ncccc2C(=O)NS(=O)(=O)N2CC[C@@H](NCc3ccc(OC(C)(C)C)cc3)C2)C(C)(C)C1` [Compound 2693] reads 3 to 10 µM; that for `Cc1noc(C)c1-c1ccc(C(=O)NS(=O)(=O)c2cccnc2N)c(N2C[C@@H](C)CC2(C)C)n1` [Compound 2215, N-[(2-amino-3-pyridyl)sulfonyl]-6-(3,5-dimethylisoxazol-4-yl)-2-[(4S)-2,2,4-trimethylpyrrolidin-1-yl]pyridine-3-carboxamide], 3 to 10 µM; that for `C[C@@H]1CN(c2ncccc2C(=O)NS(=O)(=O)N2CCCC(NCc3ccc(OC(C)(C)C)cc3)C2)C(C)(C)C1` (stereo partly drawn) [Compound 2692], 3 to 10 µM.
`CC1CN(c2ncc(-c3ccc(Cl)cc3)cc2C(=O)NS(=O)(=O)c2cccc(N)n2)C(C)(C)C1` (stereo not drawn) [Compound 2399, N-[(6-amino-2-pyridyl)sulfonyl]-5-(4-chlorophenyl)-2-(2,2,4-trimethylpyrrolidin-1-yl)pyridine-3-carboxamide]: the EC30 is under 3 µM.
Still for that read-out and setting: the result for `C[C@@H]1CN(c2nc(C3=CCCN(C(=O)CC(C)(C)C)C3)ccc2C(=O)NS(=O)(=O)c2cccc(N)n2)C(C)(C)C1` [Compound 2650, N-[(6-amino-2-pyridyl)sulfonyl]-6-[1-(3,3-dimethylbutanoyl)-3,6-dihydro-2H-pyridin-5-yl]-2-[(4S)-2,2,4-trimethylpyrrolidin-1-yl]pyridine-3-carboxamide] reads 3 to 10 µM.
On the same count and under the same terms, the result for `CC1CN(c2ncccc2C(=O)NS(=O)(=O)c2cccc(OCc3ccc(F)c(F)c3)n2)C(C)(C)C1` (stereo not drawn) [Compound 2533, N—[[6-[(3,4-difluorophenyl)methoxy]-2-pyridyl]sulfonyl]-2-(2,2,4-trimethylpyrrolidin-1-yl)pyridine-3-carboxamide] reads under 3 µM.
On the same count and under the same terms, the result for `CC1CN(c2ncccc2C(=O)NS(=O)(=O)c2cccc(Oc3ccc(N)cc3)n2)C(C)(C)C1` (stereo not drawn) [Compound 2314, N—[[6-(4-aminophenoxy)-2-pyridyl]sulfonyl]-2-(2,2,4-trimethylpyrrolidin-1-yl)pyridine-3-carboxamide] reads 3 to 10 µM; that for `CC1CN(c2ncccc2C(=O)NS(=O)(=O)c2cccc(Oc3cccc(C#N)c3)n2)C(C)(C)C1` (stereo not drawn) [Compound 2725], under 3 µM; that for `CC1CN(c2ncccc2C(=O)NS(=O)(=O)c2cccc(N3CCCC3C(F)(F)F)n2)C(C)(C)C1` (stereo not drawn) [Compound 2055, N—[[6-[2-(trifluoromethyl)pyrrolidin-1-yl]-2-pyridyl]sulfonyl]-2-(2,2,4-trimethylpyrrolidin-1-yl)pyridine-3-carboxamide], under 3 µM.
As to `C[C@@H]1CN(c2nc(-c3ccc4ccn(C)c4c3)ccc2C(=O)NS(=O)(=O)c2cccnc2N)C(C)(C)C1` [Compound 2401, N-[(2-amino-3-pyridyl)sulfonyl]-6-(I-methylindol-6-yl)-2-[(4S)-2,2,4-trimethylpyrrolidin-1-yl]pyridine-3-carboxamide], the EC30 was under 3 µM.
The same measure, in the same setting: the figure for `CCOc1ccccc1-c1cnc(N2CC(C)CC2(C)C)c(C(=O)NS(=O)(=O)c2cccc(N)n2)c1` (stereo not drawn) [Compound 2557, N-[(6-amino-2-pyridyl)sulfonyl]-5-(2-ethoxyphenyl)-2-(2,2,4-trimethylpyrrolidin-1-yl)pyridine-3-carboxamide] is under 3 µM; for `COc1c(C)cccc1-c1ccc(C(=O)NS(=O)(=O)c2cccnc2N)c(N2C[C@@H](C)CC2(C)C)n1` [Compound 2380, N-[(2-amino-3-pyridyl)sulfonyl]-6-(2-methoxy-3-methyl-phenyl)-2-[(4S)-2,2,4-trimethylpyrrolidin-1-yl]pyridine-3-carboxamide] it is under 3 µM.
With `COc1c(F)cccc1-c1ccc(C(=O)NS(=O)(=O)c2cccnc2N)c(N2C[C@@H](C)CC2(C)C)n1` [Compound 2355, N-[(2-amino-3-pyridyl)sulfonyl]-6-(3-fluoro-2-methoxy-phenyl)-2-[(4S)-2,2,4-trimethylpyrrolidin-1-yl]pyridine-3-carboxamide], the EC30 was under 3 µM.
On the same count and under the same terms, the figure for `CCOc1nn(-c2ccc(C(=O)NS(=O)(=O)c3cccnc3N)c(N3C[C@@H](C)CC3(C)C)n2)cc1C` [Compound 2248, N-[(2-amino-3-pyridyl)sulfonyl]-6-(3-ethoxy-4-methyl-pyrazol-1-yl)-2-[(4S)-2,2,4-trimethylpyrrolidin-1-yl]pyridine-3-carboxamide] is under 3 µM.

The same assay, now with this note: Table 3; compounds of Table 1 as modulators of CFTR activity; protocol not stated.
Consider `Cc1cc(C)c(Oc2nc3c(cc2C(=O)NS(=O)(=O)c2cccc(N)n2)COCC3(C)C)c(C)c1` [Compound 714, N-[(6-amino-2-pyridyl)sulfonyl]-8,8-dimethyl-2-(2,4,6-trimethylphenoxy)-5,7-dihydropyrano[4,3-b]pyridine-3-carboxamide], for which the EC30 result was “+++ (“+++” means <3 uM)”.
The same measure, in the same setting: the result for `CC(C)COc1cc(F)cc(-c2ccc(C(=O)NS(=O)(=O)c3ccn[nH]3)c(N3CCC(C(F)(F)F)CC3)n2)c1` [Compound 426, 6-(3-fluoro-5-isobutoxy-phenyl)-N-(1H-pyrazol-5-ylsulfonyl)-2-[14-(trifluoromethyl)-1-piperidyl]pyridine-3-carboxamide] reads “+++ (“+++” means <3 uM)”; that for `Cc1cc(C)c(Oc2nc(N3CCCC3)ccc2C(=O)NS(=O)(=O)c2cccc(N)n2)c(C)c1` [Compound 746, N-[(6-amino-2-pyridyl)sulfonyl]-6-pyrrolidin-1-yl-2-(2,4,6-trimethylphenoxy)pyridine-3-carboxamide], “+++ (“+++” means <3 uM)”; that for `Cc1cc(C)c(Cn2c(C(=O)NS(=O)(=O)c3ccncc3)cc3c(F)cccc32)c(C)c1` [Compound 298, 4-fluoro-N-(4-pyridylsulfonyl)-1-[(2,4,6-trimethylphenyl)methyl]indole-2-carboxamide], “++ (“++” means between 3 uM and 10 uM)”.
As to `Cc1cc(C)c(Cn2c(C(=O)NS(=O)(=O)c3cccc(N)c3)cc3cc(C)ccc32)c(C)c1` [Compound 259, N-(3-aminophenyl)sulfonyl-5-methyl-1-[(2,4,6-trimethylphenyl)methyl]indole-2-carboxamide], the EC30 entry was “+++ (“+++” means <3 uM)”.
Same read-out and setting: the result for `Cc1cc(C)c(Oc2nc3c(cc2C(=O)NS(=O)(=O)c2cccc(N)n2)CCC(C)(C)C3)c(C)c1` [Compound 665, N-[(6-amino-2-pyridyl)sulfonyl]-7,7-dimethyl-2-(2,4,6-trimethylphenoxy)-6,8-dihydro-5H-quinoline-3-carboxamide] reads “+++ (“+++” means <3 uM)”; that for `CC(C)COc1cc(F)cc(-c2ccc(C(=O)NS(=O)(=O)c3ccc[nH]c3=O)c(N3CCC(C)CC3)n2)c1` [Compound 422, 6-(3-fluoro-5-isobutoxy-phenyl)-2-(4-methyl-1-piperidyl)-N-[(2-oxo-1H-pyridin-3-yl)sulfonyl]pyridine-3-carboxamide], “+++ (“+++” means <3 uM)”; that for `Cc1cc(C)c(Cn2nc(C(C)(C)C)c(C)c2C(=O)NS(=O)(=O)c2cccc(N)c2)c(C)c1` [Compound 20, N-(3-aminophenyl)sulfonyl-5-tert-butyl-4-methyl-2-[(2,4,6-trimethylphenyl)methyl]pyrazole-3-carboxamide], “+++ (“+++” means <3 uM)”.
Consider `Cc1cccc(C)c1Cn1nc(-c2cccc(C(F)(F)F)c2)cc1C(=O)NS(=O)(=O)c1ccccc1` [Compound 220, N-(benzenesulfonyl)-2-[(2,6-dimethylphenyl)methyl]-5-[3-(trifluoromethyl)phenyl]pyrazole-3-carboxamide], for which the 30% effect concentration (EC30) result was “+++ (“+++” means <3 uM)”.
Same read-out and setting: the entry for `Cc1cc(C)c(Oc2nc(-c3ccc(F)cc3F)ccc2C(=O)NS(=O)(=O)c2cccc(N)n2)c(C)c1` [Compound 439, N-[(6-amino-2-pyridyl)sulfonyl]-6-(2,4-difluorophenyl)-2-(2,4,6-trimethylphenoxy)pyridine-3-carboxamide] is “+++ (“+++” means <3 uM)”; for `CC(C)COc1cc(F)cc(-c2ccc(C(=O)NS(=O)(=O)c3cccc(N)n3)c(N3CC(C)CC3C)n2)c1` (stereo not drawn) [Compound 587, N-[(6-amino-2-pyridyl)sulfonyl]-2-(2,4-dimethylpyrrolidin-1-yl)-6-(3-fluoro-5-isobutoxy-phenyl)pyridine-3-carboxamide] it is “+++ (“+++” means <3 uM)”; for `CC1CC(C)N(c2nc(-c3ccc(OC(C)C)nc3)ccc2C(=O)NS(=O)(=O)c2cccc(N)n2)C1` (stereo not drawn) [Compound 689, N-[(6-amino-2-pyridyl)sulfonyl]-2-(2,4-dimethylpyrrolidin-1-yl)-6-(6-isopropoxy-3-pyridyl)pyridine-3-carboxamide] it is “+++ (“+++” means <3 uM)”.
The same measure, in the same setting: the entry for `C[C@@H]1CC[C@H](C)N1c1nc(-c2ccc(Cl)cc2)ccc1C(=O)NS(=O)(=O)c1ccc[nH]c1=O` [Compound 760, 6-(4-chlorophenyl)-2-[(2S,5R)-2,5-dimethylpyrrolidin-1-yl]-N-[(2-oxo-1H-pyridin-3-yl)sulfonyl]pyridine-3-carboxamide] is “++ (“++” means between 3 uM and 10 uM)”; for `Cc1cc(C)c(Cn2c(C(=O)NS(=O)(=O)c3ccccc3)cc3c(Cl)cccc32)c(C)c1` [Compound 127, N-(benzenesulfonyl)-4-chloro-1-[(2,4,6-trimethylphenyl)methyl]indole-2-carboxamide] it is “+++ (“+++” means <3 uM)”; for `COc1ccc2c(c1)cc(C(=O)NS(=O)(=O)c1ccccc1)n2Cc1c(C)cc(C)cc1C` [Compound 241, N-(benzenesulfonyl)-5-methoxy-1-[(2,4,6-trimethylphenyl)methyl]indole-2-carboxamide] it is “+++ (“+++” means <3 uM)”.
